From patent publication US6541612B2 (Wyeth, priority 1993, dated 2003)
Each block holds one molecule with its values, some of them ahead of it.

Assays:
[1] = system: rapamycin specific antibody; test: BIAcore binding of antibody to matrix-immobilized compound; settings: 803 resonance units (RU) of the compound immobilized on a solid matrix, EDC and NHS
Method: The following example illustrates that 803 resonance units (RU) of the compound of Example 11 can be immobilized on a solid matrix using the BIAcore's standard protocol based on EDC and NHS used in a BIAcore. […] The kinetics of association and dissociation were determined for each concentration of antibody tested (0.625, 1.25, 2.5, 5.0, 10.0 ug/ml). […] This matrix can also be used for the isolation of novel binding proteins, as practiced by one skilled in the art. […] In one approach, tissue or cell lysates containing the appropriate protease inhibitors are incubated with FKBP which has been incubated with a deprotected-rapamycin 42-ester with N-[9fluoren-9-ylmethoxy)carbonyl]glycine conjugated matrix for a sufficient time to allow binding. Various buffers are used to rinse the proteins which are nonspecifically bound.

RAP-42-OVAF2#1 MoAb = settings: for fluorescence polarization on addition of RAP-42-OVAF2#1 MoAb: 5 ug/mL MoAb
From the text: The hybridoma cell line in P4G1 was cloned by limiting dilution and is designated as hybridoma cell line, RAP-42-OVAF2#1hc.

FKBP12 [2] = molecular target: T1, FKBP12 (Homo sapiens, UniProt P62942); test: Fluorescence polarization, tracer binding to FKBP12; settings: for fluorescence polarization on addition of FKBP12: 0.ug FKBP12 to 1.00 mL 10 nM tracer; for fluorescence polarization before addition of FKBP12: 1.00 mL 10 nM tracer
FKBP12 [3] = molecular target: T1, FKBP12; test: Fluorescence polarization competition, rapamycin-fluorescein and FKBP12; type: binding
Anti-rapamycin Antibody = test: Capture ELISA of anti-rapamycin antibody levels in rabbit sera; type: binding; settings: sera diluted 1:5, conjugate 0.5 ng/ml
Method: Microtiter plates (IMMUNOLON I) were coated overnight with 100 μl of goat anti-mouse antibody (10 μg/ml in 10 mM potassium phosphate buffer, pH 7.2) at 4° C. The plates were flicked and blocked with 100 μl of 1% bovine sera albumin in phosphate buffered saline overnight at 4° C. […] After flicking and washing the plates thrice with wash buffer, TMB substrate with H2O2 was added and the plates were incubated covered for 30 min. at room temperature in the dark. The optical density was read on a spectrophotometer at 450 nm.

mice = settings: 50 μg intrasplenically in Complete Freund's Adjuvant, boost 50 μg into footpads
Method: Microtiter plates (IMMUNOLON I) were coated overnight with 100 μl of goat anti-mouse antibody (10 μg/ml in 10 mM potassium phosphate buffer, pH 7.2) at 4° C. The plates were flicked and blocked with 100 μl of 1% bovine sera albumin in phosphate buffered saline overnight at 4° C. After flicking and washing the plates thrice with 10 mM phosphate buffer, pH 7.05, 30 mM NaCl, 0.02% TRITON X-100 (polyethylene glycol tert-octylphenyl ether) and 0.004% thimerosal wash buffer, 100 μl of each mouse sera diluted with phosphate buffer solution was added to a well and incubated at room temperature for overnight.

[4] = tracer 10 nM in 100 mM sodium phosphate pH 7.5

T1 sequence (P62942 whole entry, species assumed): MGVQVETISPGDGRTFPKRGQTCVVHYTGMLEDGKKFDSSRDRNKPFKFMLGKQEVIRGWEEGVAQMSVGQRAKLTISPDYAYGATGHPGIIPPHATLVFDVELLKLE

rapamycin specific antibody bound by the matrix [1]: 1401 RU
Molecule: COC1CC2CCC(C)C(O)(O2)C(=O)C(=O)N2CCCCC2C(=O)OC(C(C)CC2CCC(OC(=O)CNC(=O)OCC3c4ccccc4-c4ccccc43)C(OC)C2)CC(=O)C(C)C=C(C)C(O)C(OC)C(=O)C(C)CC(C)C=CC=CC=C1C (stereo not shown) [Example 11]

Molecule: CO[C@H]1C[C@@H]2CC[C@@H](C)[C@@](O)(O2)C(=O)C(=O)N2CCCC[C@H]2C(=O)O[C@H]([C@H](C)C[C@@H]2CC[C@@H](OC(=O)CCC(=O)NCC(=O)Nc3ccc4c(c3)C(=O)OC43c4ccc(O)cc4Oc4cc(O)ccc43)[C@H](OC)C2)CC(=O)[C@H](C)/C=C(\C)[C@@H](O)[C@@H](OC)C(=O)[C@H](C)C[C@H](C)/C=C/C=C/C=C/1C [Example 23a, Rapamycin-42-ester with Succinic Acid Conjugate with 5-Glycinlfluoresceinamine]
fluorescence polarization on addition of RAP-42-OVAF2#1 MoAb (RAP-42-OVAF2#1 MoAb): 58 mP
polarization after addition of excess of RAP-42-OVAF2#1 MoAb (RAP-42-OVAF2#1 MoAb; [4]): 84 mP
fluorescence polarization on addition of FKBP12 (FKBP12 [2]): 148 mP
fluorescence polarization before addition of FKBP12 (FKBP12 [2]): 57 mP
polarization after addition of an excess of FKBP12 (FKBP12 [2]; [4]): 195 mP
polarization of tracer alone (FKBP12 [2]; tracer 10 nM in 100 mM sodium phosphate pH 7.5, no binder): 77 mP

fluorescence polarization in the presence of analyte (FKBP12 [3]; 100 nM analyte, 128 mP in the absence of analyte, 500 uL 0.02 ug/mL FKBP12 + 500 μL 20 nM rapamycin-fluorescein): 122 mP
effect on binding of rapamycin-fluorescein to FKBP12 (in words) (FKBP12 [3]; analyte 0 to 100 nM): no effect
effect on binding of secorapamycin fluorescein derivative to RAP-42-OVAF2#1 (in words) (RAP-42-OVAF2#1; analyte 0 to 100 nM): inhibits binding
Molecule: CO[C@@H](C[C@@H]1CC[C@@H](C)[C@](O)(C(=O)C(=O)N2CCCC[C@H]2C(=O)[O-])O1)/C(C)=C/C=C/C=C/[C@@H](C)C[C@@H](C)C(=O)[C@H](OC)[C@H](O)/C(C)=C/[C@@H](C)C(=O)/C=C/[C@H](C)C[C@@H]1CC[C@@H](O)[C@H](OC)C1.[Na+] [secorapamycin]
fluorescence polarization in the presence of analyte (RAP-42-OVAF2#1; 100 nM analyte, 124 mP in the absence of analyte, 500 μL 10 μg/mL MoAb + 500 μL 20 nM secorapamycin-fluorescein): 74 mP

Molecule: Rapamycin 31.42-Diester with Glutaric Acid Conjugate with Horseradish Peroxidase [Example 10]
Prebleed (A450) (Anti-rapamycin Antibody; Rabbit No. 81): 0.119
ΔA450 (3rd Bleed-Prebleed) (Anti-rapamycin Antibody; Rabbit No. 81): 0.713
Prebleed (A450) (Anti-rapamycin Antibody; Rabbit No. 89): 0.136
ΔA450 (3rd Bleed-Prebleed) (Anti-rapamycin Antibody; Rabbit No. 89): 0.037

Molecule: Rapamycin 31.42-Diester with Glutaric Acid Conjugate with Keyhole Limpet Hemocyanin [Example 8]
mice with antibodies reactive for compound of Example 10 (mice): five of the five

Molecule: Rapamycin 42-Ester with 3-[3-(4-iminobutylthio)succinimidyl]phenacyl-glycine Conjugate with Horseradish Peroxidase [Example 12]
ΔA450 (3rd Bleed-Prebleed) (Anti-rapamycin Antibody; Rabbit No. 81): 0.217
ΔA450 (3rd Bleed-Prebleed) (Anti-rapamycin Antibody; Rabbit No. 89): 0.026

binding by RAP-42-OVAF2#1 MoAb (in words) (RAP-42-OVAF2#1 MoAb): binds specifically
fluorescence polarization on addition of FKBP12 (FKBP12 [2]): 58 mP
fluorescence polarization before addition of FKBP12 (FKBP12 [2]): 49 mP
Molecule: Secorapamycin 42-ester with Succinic Acid Conjugate with 5-Glycinylfluoresceinamine [Example 24]
fluorescence polarization before addition of RAP-42-OVAF2#1 MoAb (RAP-42-OVAF2#1 MoAb): 44 mP
fluorescence polarization on addition of RAP-42-OVAF2#1 MoAb (RAP-42-OVAF2#1 MoAb): 136 mP

B1: Rapamycin 42 Ester with (N-(3-carboxyphenyl)-3-thiosuccinimidyl)-glycine Conjugate with Horseradish Peroxidase (conjugate, UniProt P00433 31-338, looked up)
Peroxidase C1A: QLTPTFYDNSCPNVSNIVRDTIVNELRSDPRIAASILRLHFHDCFVNGCDASILLDNTTSFRTEKDAFGNANSARGFPVIDRMKAAVESACPRTVSCADLLTIAAQQSVTLAGGPSWRVPLGRRDSLQAFLDLANANLPAPFFTLPQLKDSFRNVGLNRSSDLVALSGGHTFGKNQCRFIMDRLYNFSNTGLPDPTLNTTYLQTLRGLCPLNGNLSALVDFDLRTPTIFDNKYYVNLEEQKGLIQSDQELFSSPNATDTIPLVRSFANSTQTFFNAFVEAMDRMGNITPLTGTQGQIRLNCRVVNSNS
modifications: rapamycin 42-ester hapten conjugate
ΔA450 (3rd Bleed-Prebleed) (Anti-rapamycin Antibody; Rabbit No. 81): 0.114
ΔA450 (3rd Bleed-Prebleed) (Anti-rapamycin Antibody; Rabbit No. 89): 0.020
